Consider eight compounds from patent US20230391841A1, “MACROCYCLIC PEPTIDES” (Herantis Pharma OYJ, priority 2019, published 2023).

Bridge positions count the residues as written; N and C are the ends. Peptide text beside a SMILES is read from it. Bounds are passed on as bounds.

The test system of series [1] is 3D in vitro model of blood-brain barrier. The experiment in a line: Permeation in a 3D in vitro model of blood-brain barrier. In kind it is in vitro ADME, human endothelial cells, rat astrocytes and cortical neurons. The conditions noted are these: 500 nM, 2 h. As for the experimental part:
Due to the interest of developing CDNF- and MANF-derived peptides for treatment of CNS diseases with peripheral route of administration, and the fact that macrocyclization can improve cell-penetration and distribution properties of peptides, the ability of the compounds to pass the blood-brain barrier was tested in an established in vitro model of the blood-brain barrier. For this purpose, macrocyclic and linear compounds were incubated at 500 nM for 2 h in a two-compartment in vitro blood-brain barrier model (n=4) followed by sample collection is and LC-MS/MS analysis.
Primary culture of astrocytes. Rat astrocytes were prepared from a E15 embryos. Briefly, pregnant female rats (Wistar, Janvier Labs) of 15 days of gestation were deeply anesthetized in a (CO2 chamber) and then killed by cervical dislocation. Fetuses were collected and immediately placed in ice-cold L15 Leibovitz medium with a 2% penicillin (10,000 U/mL) and streptomycin (10 mg/mL) solution (PS) and 1% bovine serum albumin (BSA). Full brains were treated for 20 min at 37° C. with a trypsin- EDTA solution at a final concentration of 0.05% trypsin and 0.02% EDTA. Dissociated cells were cultured in DMEM 10% fetal calf serum. Purified astrocytes were used at passage 4 (P4).
Culture of human endothelial cells. A vial of HBMEC (Primary Human Brain Microvascular Endothelial Cells, ACBRI 376) was used at a specific passage 8 (P8).
Primary culture of cortical neurons. Rat cortical neurons were cultured as described by Callizot et al., 2013 with modification. Briefly, pregnant female rats (Wistar, Janvier Labs) of […] were deeply anesthetized in a CO2 chamber and then killed by cervical io dislocation. Fetuses were collected and immediately placed in ice-cold L15 Leibovitz medium with a 2% penicillin (10,000 U/mL) and streptomycin (10 mg/mL) solution (PS) and 1% bovine serum albumin (BSA). Cortices were treated for 20 min at 37° C. with a trypsin-EDTA solution at a final concentration of 0.05% trypsin and 0.02% EDTA. The dissociation was stopped by addition of Dulbecco's modified Eagle's medium (DMEM) with 4.5 g/L of glucose, containing is DNAse I grade II (final concentration 0.5 mg/m L) and 10% fetal calf serum (FCS). Cells were mechanically dissociated by three forced passages through the tip of a 10-m1 pipette. Cells were then centrifuged at 515×g for 10 min at 4° C. The pellet resuspended in a defined culture medium consisting of Neurobasal medium with a 2% solution of B27 supplement, 2 mmol/L of L-glutamine, 2% of PS solution, 10 ng/mL of brain-derived neurotrophic factor (BDNF). Viable cells were counted in a Neubauer cytometer, using the trypan blue exclusion test. The cortical neurons were seeded in the bottom of well pre-coated with poly-L-lysine at a density of 255,000 per well in 24-well plate with insert and cultured at 37° C. in an air (95%)-CO2 (5%) incubator. The culture medium was changed every other day.
Co-Culture of endothelial cells, astrocytes and primary cortical neurons. The procedure was performed as previously published (Xue et al., 2013 with modifications, Callizot et al., 2017). Briefly, on day 0, purified astrocytes (P4) were rapidly thawed in a water bath at 37° C. The cells were immediately put in DMEM containing 10% of FCS. Cell suspension was centrifuged at 515×g for 5 min at 4° C. and the pellets were suspended in DMEM F12 containing 10% of FCS. Cells were seeded in the outer side of the insert membrane (PET, 1 μm) at the density of 45,000 cells per insert and cultured at 37° C. in an air (95%)-CO2 (5%) incubator. Thirty-six (36) hours after the astrocytes seeding, HBMEC (P8) were rapidly thawed in a water bath at 37° C. and immediately put in DMEM containing 10% of FCS. Cell suspension was centrifuged at 515×g for 5 min at 4° C. and the pellets were suspended in EGM-2 bullet kit containing 5% of FCS, 1% of PS solution, 1.4 μM of Hydrocortisone, 5 μg/mL of acid ascorbic, 1% of lipid mixture, 10 mM of HEPES, 1 ng/mL of bFGF. […]

A short description of series [2]: In vivo pharmacokinetics after intravenous administration to rats. The conditions noted are these: for AUC(0-inf) / MRT / Vd / half-life / clearance: rat, 5 mg/kg intravenous bolus, male Sprague-Dawley rats; for AUC(0-inf) / MRT / Vd / half-life: in vivo; for clearance: plasma, read-out: CI. Also on record: species or system male Sprague-Dawley rats. As for the experimental part:
The clearance and elimination of peptides can be mediated by multiple processes in vivo, including metabolism and renal elimination.
Test compounds were intravenously (i.v.) administered to male Spraque-Dawley rats (about is six weeks old, n=3 per compound) at 5 mg/kg. Blood samples were collected from jugular vein through implanted in-dwelling catheters (250 pl blood) into labelled polypropylene tubes containing anticoagulant (heparin) at 2 min, 5 min,15 min, 30 min, 1 h, 2 h and 4 h after compound administration and held on wet ice for a maximum of 30 minutes. The blood samples were centrifuged for plasma separation (4 °C, 21100 G, 5 min). Tolbutamide 500ng/ml with 10% TFA in acetonitrile or in MeCN was used as an internal standard solution.
The standard samples were prepared into rat plasma by spiking the matrix into concentrations 2-10 000 ng/ml of the analyte, respectively, and otherwise treated as the samples. To 50 pl aliquots of sample plasma was added 200 pl of internal standard. Samples were mixed (150 rpm, 15 min) and centrifugated (3000 rpm, 15min). The analytical method was optimized for reaction monitoring chromatographic (peak shape & retention) shifts and mass spectrometric properties (ionization efficiency, MS/MS detection). Supernatants were analyzed by UHPLC-TOF mass spectrometry using electrospray ionization.

One may read the AUC(0-inf) as total exposure, with the tail of the curve extrapolated. Low readings indicate low exposure, high ones high exposure. For orientation: MRT means the average time that molecules of a dose stay in the body. As a reminder, the Vd is a proportionality between amount in the body and measured concentration, not a real space. The low end stands for little distribution into tissue, the high end for wide distribution into tissue. For orientation: half-life means how long it takes for the measured level to halve. In the case of `CC[C@H](C)[C@@H]1NC(=O)[C@H](CCC(N)=O)NC(=O)[C@H](CCCCN)NC(=O)[C@H](CC(C)C)NC(=O)[C@H](CCC(=O)O)NC(=O)[C@H](C)NC(=O)[C@H](C(C)C)NC(=O)[C@H](CCCNC(=N)N)NC(=O)[C@H](CCSC)NC(=O)[C@H](CCCCN)NC(=O)[C@H](CCCNC(=N)N)NC(=O)[C@H](CC(C)C)NC(=O)[C@H](CC(=O)O)NC(=O)[C@H](C(C)C)NC(=O)[C@H](CCC(=O)O)NC(=O)[C@H](C)NC(=O)[C@@H]2CSSC[C@H](NC(=O)[C@H](CCC(=O)O)NC(=O)[C@H](CCC(=O)O)NC(=O)CNC(=O)[C@H](Cc3c[nH]c4ccccc34)NC(=O)[C@H](CO)NC(=O)[C@H](Cc3c[nH]cn3)NC(=O)[C@H](CC(C)C)NC1=O)C(=O)N[C@@H](CCCNC(=N)N)C(=O)N[C@@H](C)C(=O)N2` [Compound 2] (cyclo(ACAEVDLRKMRVAELKQILHSWGEECR); disulfide 2-26), the “ability to pass through the in vitro blood-brain barrier as compared to linear counterpart” value (shortened to “ability … compared to linear counterpart”) in series [1] is “improved ability to pass”. Besides, in series [2], the AUC(0-inf) turned out to be 4440 ng·h/mL, the MRT is 1.01 min, the distribution volume (Vd) was 0.02 L/kg and the half-life turned out to be 3.78 min. Also, in series [2], the clearance is 20.6 mL/min/kg.
Take `CC[C@H](C)[C@@H]1NC(=O)[C@H](CCC(N)=O)NC(=O)[C@H](CCCCN)NC(=O)[C@H](CC(C)C)NC(=O)[C@H](CCC(=O)O)NC(=O)[C@H](C)NC(=O)[C@H](C(C)C)NC(=O)[C@H](CCCNC(=N)N)NC(=O)[C@H](CCSC)NC(=O)[C@H](CCCCN)NC(=O)[C@H](CCC(=O)O)NC(=O)[C@H](C)NC(=O)[C@@H]2CSSC[C@H](NC(=O)[C@H](CCC(=O)O)NC(=O)[C@H](CCC(=O)O)NC(=O)CNC(=O)[C@H](Cc3c[nH]c4ccccc34)NC(=O)[C@H](CO)NC(=O)[C@H](Cc3c[nH]cn3)NC(=O)[C@H](CC(C)C)NC1=O)C(=O)N[C@@H](CCCNC(=N)N)C(=O)N[C@@H](C)C(=O)N2` [Compound 6] (cyclo(ACAEKMRVAELKQILHSWGEECR); disulfide 2-22): the “ability … compared to linear counterpart” value in series [1] is reported as “improved ability to pass”.
The same measure, in the same setting: the value for `CC[C@H](C)[C@@H]1NC(=O)[C@H](CCCCN)NC(=O)[C@H](CCCCN)NC(=O)[C@H](CC(C)C)NC(=O)[C@H](CCC(=O)O)NC(=O)[C@H](CCCCN)NC(=O)[C@H](C(C)C)NC(=O)[C@H](CCCNC(=N)N)NC(=O)[C@H](CC(C)C)NC(=O)[C@H](CCCCN)NC(=O)[C@H](CCC(=O)O)NC(=O)[C@H](C)NC(=O)[C@@H]2CSSC[C@H](NC(=O)[C@H]([C@@H](C)O)NC(=O)[C@H](CCC(=O)O)NC(=O)CNC(=O)[C@H](Cc3c[nH]c4ccccc34)NC(=O)[C@H](CC(=O)O)NC(=O)[C@H](CC(=O)O)NC(=O)[C@H](CC(C)C)NC1=O)C(=O)N[C@@H](CCCCN)C(=O)NCC(=O)N2` [Compound 8] (cyclo(AEKLRVKELKKILDDWGETCKGC); disulfide 20-23) was “improved ability to pass”.
Take `CC[C@H](C)[C@@H]1NC(=O)[C@H](CO)NC(=O)[C@H](CCCCN)NC(=O)[C@H](CCC(=O)O)NC(=O)[C@H](C)NC(=O)[C@@H]2CSSC[C@H](NC(=O)[C@H]([C@@H](C)O)NC(=O)[C@H](CCC(=O)O)NC(=O)CNC(=O)[C@H](Cc3c[nH]c4ccccc34)NC(=O)[C@H](CC(=O)O)NC(=O)[C@H](CC(=O)O)NC(=O)[C@H](CC(C)C)NC1=O)C(=O)N[C@@H](CCCCN)C(=O)NCC(=O)N2` [Compound 10, KSILDDWGETCKGCAE] (cyclo(AEKSILDDWGETCKGC); disulfide 13-16): in series [2], the AUC(0-inf) is 2140 ng·h/mL, the MRT is 1.2 min, the Vd stood at 0.05 L/kg and the half-life was 3.6 min. Besides, the clearance in series [2] was determined as 39.9 mL/min/kg.
As for `C[C@@H]1NC(=O)[C@@H]2CSSC[C@H](NC(=O)[C@H](CCC(=O)O)NC(=O)[C@H](CCC(=O)O)NC(=O)CNC(=O)[C@H](Cc3c[nH]c4ccccc34)NC(=O)[C@H]([C@@H](C)O)NC(=O)[C@H](CCCCN)NC(=O)[C@H](CCC(=O)O)NC1=O)C(=O)N[C@@H](CCCNC(=N)N)C(=O)N[C@@H](C)C(=O)N2` [Compound 12, WGEECRACAEKT] (cyclo(ACAEKTWGEECR); disulfide 2-11), in series [1], the “ability … compared to linear counterpart” value is listed as “improved ability to pass”.
With `C[C@@H]1NC(=O)[C@@H]2CSSC[C@H](NC(=O)[C@H]([C@@H](C)O)NC(=O)[C@H](CCC(=O)O)NC(=O)CNC(=O)[C@H](Cc3c[nH]c4ccccc34)NC(=O)[C@H](CO)NC(=O)[C@H](CCCCN)NC(=O)[C@H](CCC(=O)O)NC1=O)C(=O)N[C@@H](CCCCN)C(=O)NCC(=O)N2` [Compound 14, WGETCKGCAEKS] (cyclo(AEKSWGETCKGC); disulfide 9-12), the “ability … compared to linear counterpart” value in series [1] was “improved ability to pass”. The “plasma half-life, volume of distribution and mean residence time” value in series [2] (intravenous administration to rats) was “improved”. For the same compound, in series [2] (intravenous, 5 mg/kg, rats), the blood retention behavior entry is “improved blood retention behavior” and the “time detected in the plasma after administration” value is no less than 2 h. In series [2], this compound showed an AUC(0-inf) of 4970 ng·h/mL, an MRT of 7.05 min, a Vd of 0.12 L/kg and a half-life of 15.8 min. In addition, in series [2], the clearance came to 16.8 mL/min/kg.
Consider `C[C@@H]1NC(=O)CNC(=O)[C@H](CCCNC(=N)N)NC(=O)[C@@H]2CSSC[C@H](NC1=O)C(=O)N[C@@H](C)C(=O)N[C@@H](CCC(=O)O)C(=O)N[C@@H](CCCCN)C(=O)N[C@@H]([C@@H](C)O)C(=O)N[C@@H](Cc1c[nH]c3ccccc13)C(=O)NCC(=O)N[C@@H](CCC(=O)O)C(=O)N[C@@H](CCC(=O)O)C(=O)N2` [Compound 24, WGEECRGACAEKT] (cyclo(ACAEKTWGEECRG); disulfide 2-11), for which the “ability … compared to linear counterpart” value in series [1] was “improved ability to pass”.
The same measure, in the same setting: the result for `C[C@@H]1NC(=O)[C@@H]2CSSC[C@H](NC(=O)[C@H]([C@@H](C)O)NC(=O)[C@H](CCC(=O)O)NC(=O)CNC(=O)[C@H](Cc3c[nH]c4ccccc34)NC(=O)[C@H](CO)NC(=O)[C@H](CCCCN)NC(=O)[C@H](CCC(=O)O)NC1=O)C(=O)N[C@@H](CCCCN)C(=O)NCC(=O)NCC(=O)N2` [Compound 26, WGETCKGGCAEKS] (cyclo(AEKSWGETCKGGC); disulfide 9-13) reads “improved ability to pass”.
